This is an account of results in US20070254906A1 (DarPharma, Inc., priority 2004, published 2007).

Entries after “also recorded” stand apart in the source; their conditions may differ. Where a name gives a salt, the structure may show the parent alone. Read-outs that look alike come from different tables or passages of the source.

The conditions of series [1]: background statement; cited from earlier work.
The subject of series [2] is adenylate cyclase. Nature of the series: Activation of adenylate cyclase in rat brain striatum. It is filed as biochemical. The following applies: compared with dopamine.
For series [3], the system named is D1 receptors. Nature of the series: Binding affinity at rat brain striatal D1 receptors (3H-SCH 23390). The conditions noted are these: for D1:D2 Selectivity: rat brain striatal homogenates.
The subject of series [4] is D2 receptors. The class given is binding, rat.
In series [5] the target is D1 receptors (Rattus norvegicus, UniProt P18901). Nature of the series: Binding affinity at rat brain striatal D1 receptors (3H-SCH 23390). The following applies: read-out: D1 Affinity (K0.5) ± SEM; rat brain striatal homogenates, 3H-SCH 23390.
Series [6] addresses T1, D2 receptors (Rattus norvegicus, UniProt P61169).
T1 construct: other: rat brain striatal homogenates, 3H-spiperone
The class given is binding. The following applies: rat brain striatal homogenates, 3H-spiperone; read-out: D2 Affinity (K0.5) ± SEM.

Series [7] deals with alveolar fluid resorption. The following applies: isolated, perfused rat lungs; cited from earlier work.
The subject of series [8] is lung liquid clearance. The following applies: cited from earlier work.
The target in series [9] is 40 binding sites (other than the D1 site). The conditions noted are these: inactive; Mottola et al. (1992); read-out: IC50 at about 40 different receptor binding sites; cited from earlier work.
In series [10] the test system is injured rat lung. Nature of the series: Fluid resorption in rat model of lung injury. It is filed as in vivo. The conditions noted are these: intravenous administration, listed as DHX, hydrochloride.
Series [11] concerns the target alpha2 adrenergic receptors. Nature of the series: Binding at alpha2 adrenergic receptors (screen). The following applies: Method Example 2 text.
Series [12] has as its target dopamine D1 receptor. The following applies: read-out: IC50, binding to dopamine D1 receptor; Mottola et al. (1992); cited from earlier work.
A short description of series [13]: Half-life, duration of action and oral absorption. The class given is in vivo. The conditions noted are these: for half-life: intravenous, read-out: half-life when given intravenously.
Series [14] has as its system rabbit model of lung injury. Briefly: Fluid resorption in rabbit model of lung injury. The class given is in vivo. The following applies: intravenous route.
Series [15] concerns adenylate cyclase. Briefly: Stimulation of adenylate cyclase by dihydrexidine. The conditions noted are these: for efficacy in stimulating adenylate cyclase: compared with dopamine, rat, monkey, and human brain tissue, hydrochloride.
For series [16], the target named is 40 binding sites (other than the D1 site). Nature of the series: Screen at about 40 receptor binding sites. The following applies: inactive at all except D2 and alpha2.
Series [17] has as its target alpha2 adrenergic receptors. The conditions noted are these: Mottola et al. (1992); cited from earlier work.
For series [18], the system named is dopamine release and reuptake. Briefly: Dopamine release and reuptake.
In series [19] the target is D1 receptor (Homo sapiens, UniProt P21728). Nature of the series: Alveolar fluid resorption in transgenic mice overexpressing the D1 receptor. The following applies: mice with D1 receptor overexpressed by electroporation.
Sequence of D1 receptor (P21728 whole entry): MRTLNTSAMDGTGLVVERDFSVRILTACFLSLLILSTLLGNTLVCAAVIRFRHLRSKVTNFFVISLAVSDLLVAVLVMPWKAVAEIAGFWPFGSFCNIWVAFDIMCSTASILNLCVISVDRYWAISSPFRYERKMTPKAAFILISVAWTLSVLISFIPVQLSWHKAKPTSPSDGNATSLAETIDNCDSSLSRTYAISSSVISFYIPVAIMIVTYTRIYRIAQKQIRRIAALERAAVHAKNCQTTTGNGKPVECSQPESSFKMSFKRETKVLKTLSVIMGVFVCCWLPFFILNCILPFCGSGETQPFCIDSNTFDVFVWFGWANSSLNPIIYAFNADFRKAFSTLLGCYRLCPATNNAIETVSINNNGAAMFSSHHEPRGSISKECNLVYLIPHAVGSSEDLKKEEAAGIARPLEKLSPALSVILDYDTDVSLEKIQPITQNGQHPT

Sequence of D1 receptors (Rattus norvegicus, UniProt P18901) (P18901 whole entry): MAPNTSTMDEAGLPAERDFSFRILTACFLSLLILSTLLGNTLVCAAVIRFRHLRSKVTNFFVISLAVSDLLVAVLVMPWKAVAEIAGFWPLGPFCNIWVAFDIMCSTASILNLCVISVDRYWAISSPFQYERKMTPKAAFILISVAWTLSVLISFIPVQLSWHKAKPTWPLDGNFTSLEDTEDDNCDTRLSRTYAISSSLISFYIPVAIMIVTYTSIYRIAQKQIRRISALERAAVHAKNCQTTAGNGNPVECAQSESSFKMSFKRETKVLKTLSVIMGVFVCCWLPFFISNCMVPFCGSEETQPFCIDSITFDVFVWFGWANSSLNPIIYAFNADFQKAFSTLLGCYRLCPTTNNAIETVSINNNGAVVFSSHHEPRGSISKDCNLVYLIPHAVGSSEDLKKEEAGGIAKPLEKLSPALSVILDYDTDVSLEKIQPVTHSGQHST
T1 sequence (P61169 whole entry): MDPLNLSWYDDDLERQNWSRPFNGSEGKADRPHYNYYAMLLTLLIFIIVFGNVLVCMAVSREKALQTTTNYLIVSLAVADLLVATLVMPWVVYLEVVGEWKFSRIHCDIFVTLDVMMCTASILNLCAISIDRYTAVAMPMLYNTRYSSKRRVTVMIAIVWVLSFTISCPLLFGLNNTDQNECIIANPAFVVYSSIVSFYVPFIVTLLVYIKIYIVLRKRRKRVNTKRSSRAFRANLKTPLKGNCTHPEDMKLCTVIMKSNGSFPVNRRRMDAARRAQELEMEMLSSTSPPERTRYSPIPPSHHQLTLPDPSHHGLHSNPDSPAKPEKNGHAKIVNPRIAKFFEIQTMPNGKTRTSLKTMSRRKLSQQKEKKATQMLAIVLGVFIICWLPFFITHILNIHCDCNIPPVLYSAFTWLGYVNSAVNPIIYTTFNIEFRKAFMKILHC

The melting point is the temperature of the solid-liquid transition. `Oc1ccc2c(c1O)Cc1cccc3c1C2CNC3` (centres unmarked) (as salt: hydrobromid) [dinapsoline, 8,9-Dihydroxy-2,3,7,11b-tetrahydro-1H-napth[1,2,3-de]isoquinoline]: the melting point was 258 °C (dec.).
The term half-life denotes the time needed for the level to fall by half in the phase considered. Turning to `Oc1ccc(C2CNCCc3c2cc(O)c(O)c3Cl)cc1` (centres unmarked) [fenoldopam], the half-life result in [1] is given as “about 15 minutes”.
Consider `Cc1ccc2c(c1)CN[C@H]1CCc3cc(O)c(O)cc3[C@H]21` (relative stereo) (as salt: hydrochloride) [Compound 6c, Trans-3-methyl-10,11-dihydroxy-5,6,6a,7,8, 12b-hexahydrobenzo[α]phenanthridine hydrochloride], for which the melting point was 190 °C (dec.).
Regarding `Oc1ccc2c(c1O)Cc1cccc3c1C2CNC3` (centres unmarked) [dinapsoline, 8,9-Dihydroxy-2,3,7,11b-tetrahydro-1H-napth[1,2,3-de]isoquinoline], the “efficacy in activating adenylate cyclase in rat brain striatum” value in series [2] is “as effective as dopamine”.
Regarding `Cc1ccc2c(c1)CN[C@H]1CCc3cc(O)c(O)cc3[C@H]21` (relative stereo) [Compound 6c, Trans-3-methyl-10,11-dihydroxy-5,6,6a,7,8, 12b-hexahydrobenzo[α]phenanthridine hydrochloride], in series [3], the “D1 potency and efficacy relative to dihydrexidine” value was “comparable to dihydrexidine”; the “D1:D2 Selectivity” value worked out at 6. For the same compound, the “D2 potency relative to dihydrexidine” value in series [4] is “greater D2 potency”.
Turning to `Cl.Oc1cc2c(cc1O)[C@@H]1c3cc(Cc4ccccc4)ccc3CN[C@H]1CC2` (relative stereo) [Compound 6e, Trans-2-benzyl-10,11-dihydroxy-5,6,6a,7,8,12b-hexahydrobenzo[α]phenanthridine hydrochloride], the “D1:D2 Selectivity” value in series [3] came out at 0.6. The values for the Ki in series [5] and in [6] were 290 nM and 185 nM, respectively.
Take `Br.Oc1ccc2c(c1O)Oc1cccc3c1C2CNC3` (centres unmarked): the melting point is 298 to 302 °C (dec.).
The same measure, in the same setting: the value for `Cc1ccc2c(c1)[C@H]1c3cc(O)c(O)cc3CC[C@@H]1NC2` (relative stereo) (as salt: hydrochloride) [Compound 6b, Trans-2-methyl-10,11-dihydroxy-5,6,6a,7,8,12b-hexahydrobenzo [α]phenanthridine hydrochloride] was 190 °C (dec.).
As to `CCN1CCCC1CNC(=O)c1cc(S(N)(=O)=O)ccc1OC` (centres unmarked) [sulpiride], the “blockade of the dopamine effect on alveolar fluid resorption” value in [7] is reported as “not”.
Regarding `NCCc1ccc(O)c(O)c1` [dopamine], the “increase in alveolar fluid resorption” value in series [7] is given as 98%. Besides, the results for the “increase in lung liquid clearance” value in series [8] (dopamine instilled at 10-5), in series [8] (dopamine instilled at 10-6) and in series [8] (dopamine instilled at 10-8) were 131%, 47% and 27%, respectively.
One may read the IC50 as the concentration at which inhibition is half-maximal. For the compound `Oc1cc2c(cc1O)[C@H]1c3ccccc3CN[C@@H]1CC2` (racemic) [dihydrexidine, Trans-10,11-dihydroxy-5,6,6a,7,8,12b-hexahydrobenzo[α]phenanthridine hydrochloride], the IC50 is greater than 10000 nM in series [9]; roughly 230 nM in [11]; roughly 10 nM in series [12]; greater than 10000 nM in [16]; 230 nM in [17]. For the same compound, the “fluid absorption / resorption from injured lung” value in series [10] is on record as “shown efficacy; also recorded: shown to induce fluid resorption”. Besides, the half-life in series [13] (in vivo) was roughly 30 min; in [13] (serum) it was less than 10 min. Also, in series [13] (oral administration, listed as DHX, hydrochloride), the “oral absorption / oral bioavailability” value is on record as “relatively poor; also recorded: poorly absorbed”. In addition, the “functional half-life when given subcutaneously” value in [13] (subcutaneous) was “about 3 hr”. Moreover, the “fluid resorption in lung injury model” value in series [14] is listed as “shown to induce fluid resorption”. Further, the “efficacy in stimulating adenylate cyclase” value in series [15] is on record as “full efficacy”; in [15] (listed as DHX), “as efficacious as dopamine”. Also, the “releasing dopamine or blocking its reuptake” value in [18] was “inactive”.
With `CCCN1Cc2cccc3c2C(C1)c1ccc(O)c(O)c1O3` (centres unmarked) [Compound 16c, N-propyl-8,9-dihydroxy-1,2,3,11b-tetrahydrochromeno[4,3,2-de]isoquinoline], the melting point was 259 to 264 °C (dec.).
On to `CN1CCc2cc(Cl)c(O)cc2C(c2ccccc2)C1` (centres unmarked) [SCH 23390], for which the “blockade of the dopamine effect on alveolar fluid resorption” value in series [7] was “blocked”. Further, the “blockade of the increase in alveolar fluid resorption” value in [19] was “blocked”. Further, the “blockade of dihydrexidine stimulation of adenylate cyclase” value in series [15] (D1 antagonist) is listed as “blocked”.
